Laboratory results from patent US11912660B2, “S6K1 protein kinase inhibitors as cancer therapeutics” (Xavier University of Louisiana, priority 2020, dated 2024).
Read-outs that look alike come from different tables or passages of the source.

Experiments:
Test in all cases: SelectScreen kinase panel screening
Format in all cases: biochemical
AURKA (Aurora A) = AURKA (Aurora A) (Homo sapiens (Human), UniProt O14965)
Excerpt: (§1) The complete list of the kinases given in Table 1 and their details can be found on the ThermoFisher website for Biochemical Kinase assays (thermofisher.com/us/en/home/industrial/pharma-biopharma/drug-discovery-development/target-and-lead-identification-and-validation/kinasebiology.html).

PIM1 = PIM1 (Homo sapiens (Human), UniProt P11309)
Excerpt: as §1

ROS1 = ROS1 (Homo sapiens (Human), UniProt P08922)
Excerpt: as §1

MAP2K1 (MEK1) = MAP2K1 (MEK1) (Homo sapiens (Human), UniProt Q02750)
Excerpt: as §1

ALK = ALK (Homo sapiens (Human), UniProt Q9UM73)
Excerpt: as §1

RET = RET (Homo sapiens (Human), UniProt P07949)
Excerpt: as §1

ERBB4 (HER4) = ERBB4 (HER4) (Homo sapiens (Human), UniProt Q15303)
Excerpt: as §1

AKT2 (PKB beta) = AKT2 (PKB beta) (Homo sapiens (Human), UniProt P31751)
Excerpt: as §1

IKBKB (IKK beta) = IKBKB (IKK beta) (Homo sapiens (Human), UniProt O14920)
Excerpt: as §1

HCK = HCK (Homo sapiens (Human), UniProt P08631)
Excerpt: as §1

PLK3 = PLK3 (Homo sapiens (Human), UniProt Q9H4B4)
Excerpt: as §1

FLT3 = FLT3 (Homo sapiens (Human), UniProt P36888)
Excerpt: as §1

JAK2 JH1 JH2 V617F = JAK2 JH1 JH2 V617F (Homo sapiens (Human), UniProt O60674, V617F)
Excerpt: as §1

CDC42 BPA (MRCKA) = CDC42 BPA (MRCKA) (Homo sapiens (Human), UniProt Q5VT25)
Excerpt: as §1

PDK1 Direct = PDK1 Direct (Homo sapiens (Human), UniProt O15530)
Excerpt: as §1

PIK3CG (p110 gamma) = PIK3CG (p110 gamma) (Homo sapiens (Human), UniProt P48736)
Excerpt: as §1

JAK2 JH1 JH2 = JAK2 JH1 JH2 (Homo sapiens (Human), UniProt O60674)
Excerpt: as §1

TEK (Tie2) = TEK (Tie2) (Homo sapiens (Human), UniProt Q02763)
Excerpt: as §1

BRAF V599E = BRAF V599E (Homo sapiens (Human), UniProt P15056, V600E)
Excerpt: as §1

PTK2 (FAK) = PTK2 (FAK) (Homo sapiens (Human), UniProt Q05397)
Excerpt: as §1

AURKC (Aurora C) = AURKC (Aurora C) (Homo sapiens (Human), UniProt Q9UQB9)
Excerpt: as §1

PDGFRB (PDGFR beta) = PDGFRB (PDGFR beta) (Homo sapiens (Human), UniProt P09619)
Excerpt: as §1

IGF1R = IGF1R (Homo sapiens (Human), UniProt P08069)
Excerpt: as §1

AKT1 (PKB alpha) = AKT1 (PKB alpha) (Homo sapiens (Human), UniProt P31749)
Excerpt: as §1

JAK1 = JAK1 (Homo sapiens (Human), UniProt P23458)
Excerpt: as §1

LCK = LCK (Homo sapiens (Human), UniProt P06239)
Excerpt: as §1

FYN = FYN (Homo sapiens (Human), UniProt P06241)
Excerpt: as §1

PTK6 (Brk) = PTK6 (Brk) (Homo sapiens (Human), UniProt Q13882)
Excerpt: as §1

MST1R (RON) = MST1R (RON) (Homo sapiens (Human), UniProt Q04912)
Excerpt: as §1

PDGFRA (PDGFR alpha) = PDGFRA (PDGFR alpha) (Homo sapiens (Human), UniProt P16234)
Excerpt: as §1

AURKB (Aurora B) = AURKB (Aurora B) (Homo sapiens (Human), UniProt Q96GD4)
Excerpt: as §1

Chain of PIK3CG (p110 gamma) (P48736 whole entry): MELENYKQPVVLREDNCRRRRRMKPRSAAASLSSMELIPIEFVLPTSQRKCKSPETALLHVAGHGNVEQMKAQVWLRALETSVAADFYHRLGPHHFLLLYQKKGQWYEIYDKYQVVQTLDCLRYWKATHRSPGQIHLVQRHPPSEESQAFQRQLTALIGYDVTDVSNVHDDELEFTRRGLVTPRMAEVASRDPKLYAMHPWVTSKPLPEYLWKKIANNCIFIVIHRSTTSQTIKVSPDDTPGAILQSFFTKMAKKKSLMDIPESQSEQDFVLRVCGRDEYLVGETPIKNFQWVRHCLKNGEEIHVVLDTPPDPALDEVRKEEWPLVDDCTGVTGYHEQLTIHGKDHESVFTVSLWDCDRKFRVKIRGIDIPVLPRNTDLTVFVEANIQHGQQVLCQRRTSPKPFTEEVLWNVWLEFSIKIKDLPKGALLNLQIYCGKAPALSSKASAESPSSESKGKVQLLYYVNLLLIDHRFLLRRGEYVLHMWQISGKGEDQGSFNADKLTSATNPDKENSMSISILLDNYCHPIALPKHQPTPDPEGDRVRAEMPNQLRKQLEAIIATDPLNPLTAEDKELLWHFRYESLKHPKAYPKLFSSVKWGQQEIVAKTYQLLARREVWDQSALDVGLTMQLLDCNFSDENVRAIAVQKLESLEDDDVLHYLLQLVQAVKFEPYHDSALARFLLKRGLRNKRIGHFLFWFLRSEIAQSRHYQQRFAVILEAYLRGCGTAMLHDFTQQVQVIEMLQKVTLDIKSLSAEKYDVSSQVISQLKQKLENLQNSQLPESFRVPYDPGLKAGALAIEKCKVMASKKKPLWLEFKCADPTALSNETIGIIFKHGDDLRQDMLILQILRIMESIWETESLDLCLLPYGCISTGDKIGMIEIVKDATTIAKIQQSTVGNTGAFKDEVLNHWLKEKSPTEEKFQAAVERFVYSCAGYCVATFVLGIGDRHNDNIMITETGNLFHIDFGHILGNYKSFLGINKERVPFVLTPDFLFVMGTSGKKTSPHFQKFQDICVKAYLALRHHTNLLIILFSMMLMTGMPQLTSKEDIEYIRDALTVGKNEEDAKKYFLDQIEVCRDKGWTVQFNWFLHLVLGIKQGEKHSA
Chain of IKBKB (IKK beta) (O14920 whole entry): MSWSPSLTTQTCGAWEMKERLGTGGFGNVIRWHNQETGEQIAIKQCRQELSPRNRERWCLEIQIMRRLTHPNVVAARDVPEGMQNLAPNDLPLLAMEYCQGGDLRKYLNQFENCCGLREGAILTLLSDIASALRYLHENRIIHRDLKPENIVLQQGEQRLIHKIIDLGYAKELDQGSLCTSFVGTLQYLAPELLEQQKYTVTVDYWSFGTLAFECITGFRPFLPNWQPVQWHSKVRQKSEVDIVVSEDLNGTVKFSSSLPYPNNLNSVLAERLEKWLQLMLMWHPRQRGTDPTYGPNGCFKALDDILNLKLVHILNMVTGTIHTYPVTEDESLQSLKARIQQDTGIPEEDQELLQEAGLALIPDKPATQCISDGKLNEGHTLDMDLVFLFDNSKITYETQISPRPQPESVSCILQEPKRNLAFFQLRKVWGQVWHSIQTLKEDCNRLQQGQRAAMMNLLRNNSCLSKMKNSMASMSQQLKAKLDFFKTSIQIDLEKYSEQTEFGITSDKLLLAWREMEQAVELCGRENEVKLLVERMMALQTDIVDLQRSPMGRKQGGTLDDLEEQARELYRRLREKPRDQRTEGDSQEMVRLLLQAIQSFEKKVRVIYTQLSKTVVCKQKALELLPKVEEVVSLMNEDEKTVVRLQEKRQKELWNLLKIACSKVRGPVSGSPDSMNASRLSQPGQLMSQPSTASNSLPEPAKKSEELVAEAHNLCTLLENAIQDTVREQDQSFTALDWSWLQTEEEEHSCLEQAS
Chain of ALK (Q9UM73 19-1620): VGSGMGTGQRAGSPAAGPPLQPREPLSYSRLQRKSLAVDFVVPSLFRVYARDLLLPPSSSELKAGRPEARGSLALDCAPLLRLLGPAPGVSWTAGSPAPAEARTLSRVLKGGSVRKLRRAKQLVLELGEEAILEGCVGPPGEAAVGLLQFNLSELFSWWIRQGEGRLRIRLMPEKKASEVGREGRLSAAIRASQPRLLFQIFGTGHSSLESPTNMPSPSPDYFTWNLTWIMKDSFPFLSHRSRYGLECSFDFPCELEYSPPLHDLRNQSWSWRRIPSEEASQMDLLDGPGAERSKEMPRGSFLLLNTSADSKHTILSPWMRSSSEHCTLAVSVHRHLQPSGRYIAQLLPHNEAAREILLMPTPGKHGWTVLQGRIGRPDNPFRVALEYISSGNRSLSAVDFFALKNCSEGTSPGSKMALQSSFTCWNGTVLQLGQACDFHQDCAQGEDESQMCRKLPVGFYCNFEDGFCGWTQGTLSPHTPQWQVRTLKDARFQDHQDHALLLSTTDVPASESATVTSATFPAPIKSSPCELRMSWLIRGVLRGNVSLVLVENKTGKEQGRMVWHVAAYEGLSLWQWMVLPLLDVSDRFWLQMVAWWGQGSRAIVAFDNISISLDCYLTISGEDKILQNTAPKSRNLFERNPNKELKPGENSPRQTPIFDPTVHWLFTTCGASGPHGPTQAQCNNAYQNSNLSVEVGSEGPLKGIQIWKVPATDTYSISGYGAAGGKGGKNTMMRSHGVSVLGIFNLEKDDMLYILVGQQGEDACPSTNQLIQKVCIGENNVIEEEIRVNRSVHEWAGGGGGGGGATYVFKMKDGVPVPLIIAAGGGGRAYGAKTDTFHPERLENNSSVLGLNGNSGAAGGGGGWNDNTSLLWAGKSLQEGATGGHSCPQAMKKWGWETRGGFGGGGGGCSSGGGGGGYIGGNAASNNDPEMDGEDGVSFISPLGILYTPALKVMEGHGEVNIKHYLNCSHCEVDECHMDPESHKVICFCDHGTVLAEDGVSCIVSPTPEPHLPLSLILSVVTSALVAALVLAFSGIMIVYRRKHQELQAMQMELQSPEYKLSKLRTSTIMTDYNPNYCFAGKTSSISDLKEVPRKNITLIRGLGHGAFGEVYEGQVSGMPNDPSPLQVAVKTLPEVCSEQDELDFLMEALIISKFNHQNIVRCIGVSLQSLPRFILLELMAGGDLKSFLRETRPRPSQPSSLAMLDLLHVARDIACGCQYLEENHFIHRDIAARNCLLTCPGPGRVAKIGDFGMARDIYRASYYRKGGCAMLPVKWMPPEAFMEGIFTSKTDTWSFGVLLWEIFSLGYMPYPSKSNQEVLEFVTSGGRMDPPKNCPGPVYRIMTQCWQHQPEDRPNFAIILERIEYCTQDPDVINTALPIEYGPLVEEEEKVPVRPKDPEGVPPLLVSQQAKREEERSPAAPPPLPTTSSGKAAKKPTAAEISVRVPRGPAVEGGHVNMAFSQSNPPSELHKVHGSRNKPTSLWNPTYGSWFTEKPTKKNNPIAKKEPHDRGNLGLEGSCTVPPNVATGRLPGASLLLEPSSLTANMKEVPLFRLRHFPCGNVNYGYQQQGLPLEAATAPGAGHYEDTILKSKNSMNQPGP
Chain of AURKA (Aurora A) (O14965 whole entry): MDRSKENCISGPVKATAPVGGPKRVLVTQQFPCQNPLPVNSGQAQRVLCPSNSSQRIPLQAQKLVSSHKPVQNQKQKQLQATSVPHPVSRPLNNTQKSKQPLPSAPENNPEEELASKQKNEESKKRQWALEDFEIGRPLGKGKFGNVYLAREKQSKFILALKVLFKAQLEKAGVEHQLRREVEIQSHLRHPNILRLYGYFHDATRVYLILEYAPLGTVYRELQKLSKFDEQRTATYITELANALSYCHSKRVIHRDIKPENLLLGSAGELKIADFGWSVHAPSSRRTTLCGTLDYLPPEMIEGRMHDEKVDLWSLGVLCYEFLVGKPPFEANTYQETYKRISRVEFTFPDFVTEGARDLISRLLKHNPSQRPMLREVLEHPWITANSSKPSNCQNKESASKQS
Chain of AKT1 (PKB alpha) (P31749 whole entry): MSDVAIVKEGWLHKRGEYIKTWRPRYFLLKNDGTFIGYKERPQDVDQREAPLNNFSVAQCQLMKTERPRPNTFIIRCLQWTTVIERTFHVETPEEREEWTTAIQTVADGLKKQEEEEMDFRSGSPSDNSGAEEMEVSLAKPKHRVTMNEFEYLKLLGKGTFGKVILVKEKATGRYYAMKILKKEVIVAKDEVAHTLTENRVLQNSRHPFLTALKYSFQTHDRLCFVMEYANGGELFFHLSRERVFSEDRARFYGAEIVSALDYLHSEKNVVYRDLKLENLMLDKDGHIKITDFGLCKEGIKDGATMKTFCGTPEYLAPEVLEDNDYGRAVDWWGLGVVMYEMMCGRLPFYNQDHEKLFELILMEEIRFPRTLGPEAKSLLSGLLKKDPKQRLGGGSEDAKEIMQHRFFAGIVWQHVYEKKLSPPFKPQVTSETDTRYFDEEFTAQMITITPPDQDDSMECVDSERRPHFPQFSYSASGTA
Chain of PDK1 Direct (O15530 whole entry): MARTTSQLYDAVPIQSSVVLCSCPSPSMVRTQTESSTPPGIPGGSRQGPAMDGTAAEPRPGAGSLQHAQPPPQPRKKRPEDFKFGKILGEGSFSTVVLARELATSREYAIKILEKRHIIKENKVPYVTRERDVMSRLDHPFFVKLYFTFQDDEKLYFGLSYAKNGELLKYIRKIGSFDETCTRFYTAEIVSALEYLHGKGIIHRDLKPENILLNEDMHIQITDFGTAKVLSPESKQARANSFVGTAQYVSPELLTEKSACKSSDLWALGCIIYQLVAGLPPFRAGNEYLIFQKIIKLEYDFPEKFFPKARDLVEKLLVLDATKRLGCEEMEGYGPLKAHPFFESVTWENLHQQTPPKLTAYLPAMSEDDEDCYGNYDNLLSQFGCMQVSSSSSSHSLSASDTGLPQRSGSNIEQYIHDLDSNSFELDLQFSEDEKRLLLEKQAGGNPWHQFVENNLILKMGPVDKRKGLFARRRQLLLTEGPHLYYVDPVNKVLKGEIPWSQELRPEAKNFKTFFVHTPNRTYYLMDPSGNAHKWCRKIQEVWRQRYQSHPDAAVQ

Q: Which results are given for Nc1cc(N)c2c(c1)C(=O)NC2=O [RJ1, 4,6-diaminoisoindoline-1,3-dione]?
A: inhibition at 10 µM (AURKA (Aurora A); read-out: % Inhibition): 43%; inhibition at 10 µM (AURKA (Aurora A); read-out: % Inhibition class): 40 to 80%; inhibition at 10 µM (PIM1; read-out: % Inhibition): 35%; inhibition at 10 µM (PIM1; read-out: % Inhibition class): < 40%; inhibition at 10 µM (ROS1; read-out: % Inhibition): 3%; inhibition at 10 µM (ROS1; read-out: % Inhibition class): < 40%; inhibition at 10 µM (MAP2K1 (MEK1); read-out: % Inhibition): 13%; inhibition at 10 µM (MAP2K1 (MEK1); read-out: % Inhibition class): < 40%; inhibition at 10 µM (ALK; read-out: % Inhibition): 32%; inhibition at 10 µM (ALK; read-out: % Inhibition class): < 40%; inhibition at 10 µM (RET; read-out: % Inhibition): 79%; inhibition at 10 µM (RET; read-out: % Inhibition class): 40 to 80%; inhibition at 10 µM (ERBB4 (HER4); read-out: % Inhibition): 25%; inhibition at 10 µM (ERBB4 (HER4); read-out: % Inhibition class): < 40%; inhibition at 10 µM (AKT2 (PKB beta); read-out: % Inhibition): 9%; inhibition at 10 µM (AKT2 (PKB beta); read-out: % Inhibition class): < 40%; inhibition at 10 µM (IKBKB (IKK beta); read-out: % Inhibition): 16%; inhibition at 10 µM (IKBKB (IKK beta); read-out: % Inhibition class): < 40%; inhibition at 10 µM (HCK; read-out: % Inhibition): 21%; inhibition at 10 µM (HCK; read-out: % Inhibition class): < 40%; inhibition at 10 µM (PLK3; read-out: % Inhibition): 77%; inhibition at 10 µM (PLK3; read-out: % Inhibition class): 40 to 80%; inhibition at 10 µM (FLT3; read-out: % Inhibition): 29%; inhibition at 10 µM (FLT3; read-out: % Inhibition class): < 40%; inhibition at 10 µM (JAK2 JH1 JH2 V617F; read-out: % Inhibition): 6%; inhibition at 10 µM (JAK2 JH1 JH2 V617F; read-out: % Inhibition class): < 40%; inhibition at 10 µM (CDC42 BPA (MRCKA); read-out: % Inhibition): 0%; inhibition at 10 µM (CDC42 BPA (MRCKA); read-out: % Inhibition class): < 40%; inhibition at 10 µM (PDK1 Direct; read-out: % Inhibition): 33%; inhibition at 10 µM (PDK1 Direct; read-out: % Inhibition class): < 40%; % Inhibition (PIK3CG (p110 gamma); 10 μM): 11%; inhibition at 10 µM (PIK3CG (p110 gamma); read-out: % Inhibition): 12%; inhibition at 10 µM (PIK3CG (p110 gamma); read-out: % Inhibition class): < 40%; inhibition at 10 µM (JAK2 JH1 JH2; read-out: % Inhibition): 15%; inhibition at 10 µM (JAK2 JH1 JH2; read-out: % Inhibition class): < 40%; inhibition at 10 µM (TEK (Tie2); read-out: % Inhibition): 20%; inhibition at 10 µM (TEK (Tie2); read-out: % Inhibition class): < 40%; inhibition at 10 µM (BRAF V599E; read-out: % Inhibition): 22%; inhibition at 10 µM (BRAF V599E; read-out: % Inhibition class): < 40%; inhibition at 10 µM (PTK2 (FAK); read-out: % Inhibition): 26%; inhibition at 10 µM (PTK2 (FAK); read-out: % Inhibition class): < 40%; inhibition at 10 µM (AURKC (Aurora C); read-out: % Inhibition): 40%; inhibition at 10 µM (AURKC (Aurora C); read-out: % Inhibition class): < 40%; inhibition at 10 µM (PDGFRB (PDGFR beta); read-out: % Inhibition): 5%; inhibition at 10 µM (PDGFRB (PDGFR beta); read-out: % Inhibition class): < 40%; inhibition at 10 µM (IGF1R; read-out: % Inhibition): 10%; inhibition at 10 µM (IGF1R; read-out: % Inhibition class): < 40%; inhibition at 10 µM (AKT1 (PKB alpha); read-out: % Inhibition): 11%; inhibition at 10 µM (AKT1 (PKB alpha); read-out: % Inhibition class): < 40%; inhibition at 10 µM (JAK1; read-out: % Inhibition): 9%; inhibition at 10 µM (JAK1; read-out: % Inhibition class): < 40%; inhibition at 10 µM (LCK; read-out: % Inhibition): 31%; inhibition at 10 µM (LCK; read-out: % Inhibition class): < 40%; inhibition at 10 µM (FYN; read-out: % Inhibition): 17%; inhibition at 10 µM (FYN; read-out: % Inhibition class): < 40%; inhibition at 10 µM (PTK6 (Brk); read-out: % Inhibition): 4%; inhibition at 10 µM (PTK6 (Brk); read-out: % Inhibition class): < 40%; inhibition at 10 µM (MST1R (RON); read-out: % Inhibition): 27%; inhibition at 10 µM (MST1R (RON); read-out: % Inhibition class): < 40%; inhibition at 10 µM (PDGFRA (PDGFR alpha); read-out: % Inhibition): 13%; inhibition at 10 µM (PDGFRA (PDGFR alpha); read-out: % Inhibition class): < 40%; inhibition at 10 µM (AURKB (Aurora B); read-out: % Inhibition): 63%; inhibition at 10 µM (AURKB (Aurora B); read-out: % Inhibition class): 40 to 80%
